50 molecules from patent EP4631938A1, “NITROGEN-CONTAINING HETEROCYCLE WITH SEROTONIN RECEPTOR-BINDING ACTIVITY AND CARBOCYCLIC DERIVATIVE” (Shionogi & Co., Ltd, priority 2022, dated 2024) can be followed below.

The target of assay [1] is T1, human recombinant 5-HT2A receptor (Homo sapiens, UniProt P28223).
T1 construct: expressed in transfected cells; host or cells: Jump-In HEK cells (membrane preparation)
Description: Test Example 1-2: 5-HT2A receptor binding inhibition test ([3H]-Ketanserin; non-specific ligand Ketanserin). The conditions noted are these: [3H]-Ketanserin; non-specific binding with 500 µmol/L Ketanserin; room temperature (25°C), 1.5 hours; read-out: h 5-HT2A Ki. In outline: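 Ki values were derived from dose-response inhibition of [3H]-ketanserin binding; nonspecific binding was set with 500 µmol/L ketanserin, and Kd was set for each membrane lot from Scatchard saturation plots. Incubation lasted 1.5 h at room temperature (25 °C). Bound radioligand was harvested on Tris-HCl (pH 7.4)-presoaked filters and counted.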

Assay [2] has as its target T2, human recombinant 5-HT2C receptor (Homo sapiens, UniProt P28335).
T2 construct: expressed in transfected cells; host or cells: Jump-In HEK cells (membrane preparation)
T2 sequence (P28335 33-458): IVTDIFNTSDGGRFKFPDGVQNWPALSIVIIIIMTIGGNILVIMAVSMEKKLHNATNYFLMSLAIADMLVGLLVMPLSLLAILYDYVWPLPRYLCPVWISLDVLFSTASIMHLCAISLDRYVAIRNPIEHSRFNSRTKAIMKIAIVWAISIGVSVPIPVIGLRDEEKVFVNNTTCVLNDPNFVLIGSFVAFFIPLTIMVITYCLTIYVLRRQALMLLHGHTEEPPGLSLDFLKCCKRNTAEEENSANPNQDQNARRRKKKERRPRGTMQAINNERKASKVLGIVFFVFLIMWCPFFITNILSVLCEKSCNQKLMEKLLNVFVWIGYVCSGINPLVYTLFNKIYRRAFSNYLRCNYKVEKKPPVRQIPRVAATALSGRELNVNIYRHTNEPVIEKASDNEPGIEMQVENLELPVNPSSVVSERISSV
As to the kind of experiment: Test Example 2: 5-HT2C receptor binding inhibition test ([3H]-Mesulergine; non-specific ligand Serotonin HCl). The conditions noted are these: human serotonin 5-HT2C receptor binding activity. In outline:
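Ki values come from dose-response curves of [3H]-mesulergine displacement from human 5-HT2C membranes after 2 h at 37°C, scored by scintillation counting of filter-bound radioactivity. Serotonin HCl (500 µmol/L) set non-specific binding; Kd per membrane lot was taken from Scatchard plots.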

The term Ki denotes a dissociation constant, usually derived from enzyme kinetics or from competition with a known ligand.

T1 sequence (P28223 whole entry): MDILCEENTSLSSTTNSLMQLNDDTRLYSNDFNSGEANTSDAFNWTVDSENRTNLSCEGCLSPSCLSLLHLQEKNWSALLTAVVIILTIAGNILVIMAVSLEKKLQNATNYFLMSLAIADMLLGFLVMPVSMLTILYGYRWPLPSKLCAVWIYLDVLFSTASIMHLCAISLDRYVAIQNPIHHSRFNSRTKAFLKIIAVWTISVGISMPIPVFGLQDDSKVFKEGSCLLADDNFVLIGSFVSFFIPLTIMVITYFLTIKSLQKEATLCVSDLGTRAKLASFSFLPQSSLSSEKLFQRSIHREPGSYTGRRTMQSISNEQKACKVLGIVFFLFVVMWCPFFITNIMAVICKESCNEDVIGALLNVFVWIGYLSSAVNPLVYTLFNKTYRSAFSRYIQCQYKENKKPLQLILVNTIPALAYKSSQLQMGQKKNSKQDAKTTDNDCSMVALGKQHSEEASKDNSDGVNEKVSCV

Consider `Cn1ncc(Br)c1-c1nc(Nc2ccc(Cl)cc2F)ncc1OCCO` [Compound I-340], for which the figures for the inhibitory constant (Ki) in assay [1] and in assay [2] were 0.212 nM and 1.38 nM, respectively.
Regarding `Cc1cc(Cl)cnc1Nc1ccc(OCCO)c(-c2c(Br)cnn2C)c1` [Compound I-341], the inhibition constant Ki in assay [1] came out at 0.303 nM; in assay [2], 0.14 nM.
With `Cn1ncc(Br)c1-c1nc(Nc2ccc(Cl)cc2Cl)ncc1OCCO` [Compound I-342], the Ki was found to be 0.256 nM in assay [1] and 1.88 nM in assay [2].
Regarding `Cc1cc(Cl)ccc1Nc1ncc(OCCO)c(-c2c(Br)cnn2C)n1` [Compound I-343], the Ki is 0.184 nM in assay [1] and 2.42 nM in assay [2].
As to `Cn1ncc(Br)c1-c1nc(Nc2ccc(Cl)c(Cl)c2)ncc1OCCO` [Compound I-344], the figures for the Ki in assay [1] and in assay [2] were 0.26 nM and 6.63 nM, respectively.
Regarding `Cn1ncc(Br)c1-c1nc(Nc2ccc(Cl)c(F)c2)ncc1OCCO` [Compound I-345], the results for the Ki in assay [1] and in assay [2] were 0.257 nM and 3.12 nM, respectively.
The matching figures for `Cc1cc(OC(F)(F)F)ccc1Nc1ncc(OCCO)c(-c2c(Br)cnn2C)n1` [Compound I-346]: 0.24 nM and 1.7 nM.
In the case of `Cn1ncc(Br)c1-c1nc(Nc2ccc(OC(F)(F)F)cc2)ncc1OCCO` [Compound I-347], the Ki was found to be 0.262 nM in assay [1] and 1.08 nM in assay [2].
Consider `Cc1cc(Nc2ncc(OCCO)c(-c3c(Br)cnn3C)n2)ccc1Cl` [Compound I-348], for which the inhibitory constant (Ki) in assay [1] was determined as 0.215 nM; in assay [2] it was 6.11 nM.
On the same counts, the results for `Cn1ncc(Br)c1-c1nc(Nc2ccc(C(F)(F)F)nc2)ncc1OCCO` [Compound I-349] are 0.254 nM and 47.7 nM.
In the case of `Cn1ncc(Br)c1-c1nc(Nc2ccc(Cl)c(C(F)(F)F)c2)ncc1OCCO` [Compound I-350], the Ki in assay [1] was 0.204 nM; in assay [2], 6.51 nM.
Take `Cn1ncc(Br)c1-c1nc(Nc2ccc(C(F)(F)F)c(Cl)c2)ncc1OCCO` [Compound I-351]: the Ki in assay [1] was found to be 0.242 nM; in assay [2], 1.77 nM.
`Cn1ncc(Br)c1-c1nc(Nc2ccc(C#N)cc2)ncc1OCCO` [Compound I-352]: the values for the Ki in assay [1] and in assay [2] were 0.202 nM and 5.99 nM, respectively.
On to `Cn1ncc(Br)c1-c1nc(Nc2ccc(OC(F)F)cc2)ncc1OCCO` [Compound I-353], for which the Ki in assay [1] was 0.179 nM; in assay [2], 0.975 nM.
On the same counts, the results for `Cn1ncc(Br)c1-c1nc(Nc2ccc(C#N)cc2F)ncc1OCCO` [Compound I-354] are 0.319 nM and 8.53 nM.
As to `Cc1cc(C#N)ccc1Nc1ncc(OCCO)c(-c2c(Br)cnn2C)n1` [Compound I-355], the Ki came to 0.398 nM in assay [1] and 8.2 nM in assay [2].
The matching figures for `Cc1cnn(C)c1-c1nc(Nc2ccc(OC(F)(F)F)cc2)ncc1OCCO` [Compound I-356]: 0.163 nM and 7.79 nM.
On the same counts, the results for `Cc1nc(C)c(-c2nc(Nc3ccc(OC(F)(F)F)cc3)ncc2OCCO)c(C)n1` [Compound I-357] are 0.635 nM and 3.07 nM.
Take `O=C1NCc2c1cccc2-c1cc(Nc2ncc(C(F)(F)F)cc2F)ncc1OCCO` [Compound I-358]: the inhibitory constant (Ki) was 0.603 nM in assay [1] and 5.78 nM in assay [2].
In the case of `O=C1OCc2c1cccc2-c1cc(Nc2ncc(C(F)(F)F)cc2F)ncc1OCCO` [Compound I-360], the inhibition constant Ki in assay [1] is 1.22 nM; in assay [2], 54.8 nM.
For `Cc1nc(C)c(-c2cc(Nc3ncc(C(F)(F)F)cc3F)ncc2O[C@H](C)CO)c(C)n1` [Compound I-361], the Ki worked out at 2.4 nM in assay [1] and 18.3 nM in assay [2].
On the same counts, the results for `C[C@H](CO)Oc1cnc(Nc2ncc(C(F)(F)F)cc2F)cc1-c1cccc2c1CNC2=O` [Compound I-362] are 0.924 nM and 25.2 nM.
On the same counts, the results for `Cc1nc(C)c(-c2nc(Nc3ccc(-c4ccc(C(F)(F)F)nc4)cn3)c(F)cc2OCCO)c(C)n1` [Compound I-363] are 2.32 nM and 2.76 nM.
On to `Cc1nc(C)c(-c2nc(Nc3ccc(-c4ccc(C(F)(F)F)nc4)cn3)c(F)cc2O[C@H](C)CO)c(C)n1` [Compound I-364], for which the values for the Ki in assay [1] and in assay [2] were 3.34 nM and 12.2 nM, respectively.
As to `COCc1nc(C)c(-c2nc(Nc3ccc(-c4ccc(C(F)(F)F)nc4)cn3)c(F)cc2OCCO)c(C)n1` [Compound I-365], the Ki in assay [1] stood at 4.65 nM; in assay [2] it was 1.98 nM.
Turning to `OCCOc1cnc(Nc2ncc(C(F)(F)F)cc2F)cc1-c1cccnc1C(F)F` [Compound I-366], the Ki came to 2.19 nM in assay [1] and 59.1 nM in assay [2].
Consider `CCc1ncccc1-c1cc(Nc2ncc(C(F)(F)F)cc2F)ncc1OCCO` [Compound I-367], for which the inhibition constant (Ki) in assay [1] was determined as 1.97 nM; in assay [2], 64.9 nM.
Consider `O=C1NCc2c1cncc2-c1cc(Nc2ncc(C(F)(F)F)cc2F)ncc1OCCO` [Compound I-368], for which the Ki was determined as 2.13 nM in assay [1] and 51.2 nM in assay [2].
For `COC(=O)c1ccc(C)c(-c2cc(Nc3ncc(C(F)(F)F)cc3F)ncc2OCCO)c1` [Compound I-369], the Ki in assay [1] was 1.72 nM; in assay [2], 58.2 nM.
Turning to `COC(=O)c1ccc(-c2cc(Nc3ncc(C(F)(F)F)cc3F)ncc2OCCO)c(C)c1` [Compound I-370], the Ki amounted to 1.03 nM in assay [1] and 86.8 nM in assay [2].
Consider `CNC(=O)c1cnc(C)c(-c2cc(Nc3ncc(C(F)(F)F)cc3F)ncc2OCCO)c1` [Compound I-371], for which the inhibition constant (Ki) in assay [1] was 2.37 nM; in assay [2], 61.5 nM.
`Cc1cc(CO)ccc1-c1cc(Nc2ncc(C(F)(F)F)cc2F)ncc1OCCO` [Compound I-372]: the Ki in assay [1] is 0.847 nM; in assay [2], 9.14 nM.
On the same counts, the results for `Cc1ccc(CO)cc1-c1cc(Nc2ncc(C(F)(F)F)cc2F)ncc1OCCO` [Compound I-373] are 1.21 nM and 64.7 nM.
`Cc1nc(COC2CC2)nc(C)c1-c1cc(Nc2ncc(C(F)(F)F)cc2Cl)ncc1OCCO` [Compound I-374]: the Ki in assay [1] is 0.955 nM; in assay [2] it was 1.8 nM.
The matching figures for `Cc1nc(COCC(F)F)nc(C)c1-c1cc(Nc2ncc(C(F)(F)F)cc2Cl)ncc1OCCO` [Compound I-375]: 1.27 nM and 1.57 nM.
As for `Cc1nc(CO[C@H]2CCOC2)nc(C)c1-c1cc(Nc2ncc(C(F)(F)F)cc2Cl)ncc1OCCO` [Compound I-377], the figures for the Ki in assay [1] and in assay [2] were 2.9 nM and 4.66 nM, respectively.
Take `Cc1cnn(Cc2nc(C)c(-c3cc(Nc4ncc(C(F)(F)F)cc4Cl)ncc3OCCO)c(C)n2)c1` [Compound I-379]: the Ki was 1.13 nM in assay [1] and 0.791 nM in assay [2].
For the molecule `COc1nc(C)nc(OC)c1-c1cc(Nc2ncc(C(F)(F)F)cc2Cl)ncc1OCCO` [Compound I-380], the Ki in assay [1] was 0.527 nM; in assay [2] it was 7.28 nM.
Consider `Cc1nc(COC2CCOCC2)nc(C)c1-c1cc(Nc2ncc(C(F)(F)F)cc2Cl)ncc1OCCO` [Compound I-381], for which the inhibitory constant (Ki) in assay [1] stood at 2.66 nM; in assay [2], 3.58 nM.
In the case of `Cc1nc(C)c(-c2nc(Nc3ccc(OC(F)(F)F)c(C)n3)c(F)cc2OCCO)c(C)n1` [Compound I-383], the Ki is 2.57 nM in assay [1] and 4.59 nM in assay [2].
The matching figures for `Cc1nc(C)c(-c2nc(Nc3ccc(C(F)(F)F)c(C)n3)c(F)cc2OCCO)c(C)n1` [Compound I-384]: 2.87 nM and 4.58 nM.
As to `Cn1ncc(Cl)c1-c1nc(Nc2ccc(C(F)(F)F)cn2)c(F)cc1OCCO` [Compound I-385], the inhibition constant (Ki) in assay [1] was found to be 0.226 nM; in assay [2] it was 5.08 nM.
Regarding `Cn1ncc(Cl)c1-c1nc(Nc2ccc(OC(F)(F)F)cn2)c(F)cc1OCCO` [Compound I-386], the Ki in assay [1] is 0.244 nM; in assay [2], 5.22 nM.
With `Cn1ncc(Br)c1-c1nc(Nc2ccc(C(F)(F)F)cn2)c(Cl)cc1OCCO` [Compound I-387], the values for the Ki in assay [1] and in assay [2] were 0.318 nM and 3.82 nM, respectively.
On the same counts, the results for `Cn1ncc(Br)c1-c1nc(Nc2nc3ccc(F)cc3s2)c(F)cc1OCCO` [Compound I-388] are 0.366 nM and 7.66 nM.
`Cc1nc(C)c(-c2cc(Nc3ncc(C(F)(F)F)cc3C)ncc2OCCO)c(C)n1` [Compound I-389]: the results for the inhibition constant Ki in assay [1] and in assay [2] were 1.2 nM and 2.41 nM, respectively.
On to `Cc1nc(C)c(-c2cc(Nc3ncc(C(F)(F)F)cc3Cl)ncc2OCCO)c(C)n1` [Compound I-390], for which the figures for the Ki in assay [1] and in assay [2] were 1.08 nM and 3.91 nM, respectively.
For `CNC(=O)c1ccc(F)c(-c2cc(Nc3ncc(C(F)(F)F)cc3F)ncc2OCCO)c1` [Compound I-391], the inhibition constant (Ki) in assay [1] is 0.357 nM; in assay [2], 19 nM.
In the case of `Cc1nc(C)c(-c2cc(Nc3ncc(OC(F)(F)F)cc3F)ncc2O[C@H](C)CO)c(C)n1` [Compound I-392], the Ki is 2.88 nM in assay [1] and 12.3 nM in assay [2].
`COCc1nc(C)c(-c2nc(Nc3cc(-c4ccccc4)no3)c(F)cc2OCCO)c(C)n1` [Compound I-393]: the Ki in assay [1] was 17.6 nM; in assay [2] it was 78.9 nM.
